In ChEMBL document CHEMBL1125268, “Targeting renal dipeptidase (dehydropeptidase I) for inactivation by mechanism-based inactivators” (J Med Chem, 1991) one finds K inact, k cat and Km data, which are given here for four molecules.

A word on the Km: it is the concentration of substrate that gives half-maximal velocity.

The target of data set [1] is T1, Dipeptidase 1 (Sus scrofa) (UniProt P22412).
T1 sequence (whole entry): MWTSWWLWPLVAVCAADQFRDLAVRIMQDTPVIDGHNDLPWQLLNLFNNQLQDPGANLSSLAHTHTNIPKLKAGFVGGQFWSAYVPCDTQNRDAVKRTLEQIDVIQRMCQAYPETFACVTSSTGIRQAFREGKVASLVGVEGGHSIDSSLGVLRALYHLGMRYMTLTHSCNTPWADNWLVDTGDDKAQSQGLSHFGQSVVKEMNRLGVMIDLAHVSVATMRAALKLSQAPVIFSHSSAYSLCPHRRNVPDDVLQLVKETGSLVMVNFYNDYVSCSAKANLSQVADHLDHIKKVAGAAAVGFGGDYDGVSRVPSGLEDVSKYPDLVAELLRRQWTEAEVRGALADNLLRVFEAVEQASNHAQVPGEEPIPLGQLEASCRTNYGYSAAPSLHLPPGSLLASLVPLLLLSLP
As to the kind of experiment: The double -reciprocal analysis of the pseudo-first -order inactivation rates verses the inhibitor concentrations were calculated for Renal dipeptidase.

Data set [2] has as its target T1, Dipeptidase 1 (Sus scrofa). Kind of data set: The catalytic constant of the enzyme Renal dipeptidase was reported.
Data set [3] addresses T1, Dipeptidase 1 (Sus scrofa). Kind of data set: The catalytic constant of the enzyme Inactivator of Renal dipeptidase was reported.
Data set [4] deals with T1, Dipeptidase 1 (Sus scrofa). Kind of data set: The double -reciprocal analysis of the pseudo-first -order inactivation rates verses the inhibitor concentrations were calculated for Inactivator of Renal dipeptidase.
Substrate in data set [5]: C=C(NC(=O)CBr)C(=O)O
Kind of data set: (§1) Michaelis-Menten constant was reported for the compound against Renal dipeptidase.

Substrate in data set [6]: C=C(CC(=O)CC#N)C(=O)O
The description is as §1.

Compound in data set [7]: C=C(NC(=O)CC#N)C(=O)O
As to the kind of experiment: Michaelis-Menten constant was reported for the compound against Inactivator of Renal dipeptidase.

As for `C=C(CC(=O)CC#N)C(=O)O`, the K inact in data set [1] is 0.151 min⁻¹. This molecule registered a k cat in data set [2] of 0.55 s⁻¹.

With `C=C(NC(=O)CBr)C(=O)O`, the k cat in data set [2] was determined as 0.538 s⁻¹.

Molecule `C=C(NC(=O)CC#N)C(=O)O` had a k cat in data set [3] of 0.25 s⁻¹. Further, the K inact in data set [4] is 0.277 min⁻¹.

B1: Dipeptidase 1 (Sus scrofa), P22412 (protein)
chain: T1 sequence (whole entry)
B1: the Km in data set [5] is 740 µM; in data set [6], 10300 µM; in data set [7], 416 µM.
